Laboratory results taken from PubChem BioAssay AID220 (DTP/NCI, 2004).
Several values for one entry are separate records, joined by “and”; a condition that tells them apart may be missing. Identical values can stand only once. Inconclusive results are not listed. Starred links: 1 amine or outer side, 2 acyl side, 3 side chain; linkers in the order of their positions; H or OH if unused. Non-standard residues stand in square brackets, D forms with d. Residues, ends and D or L forms follow the SMILES beside them. *: point of attachment. X2 = CCC(=O)CC1CC(C)CC(C(=O)[*:2])N1[*:1]; X1 = CCCCCCCCC(C)C(=O)*; Aib = CC(C)(N)C(=O)O; X3 = CC(CN(C)CCO)N*

Tested on: CD8F1 mice, subcutaneous mammary adenocarcinoma, T/C%
Assay: NCI In Vivo Anticancer Drug Screen. Data for tumor model Mammary Adenocarcinoma CD8F1 (subcutaneous) in CD8F1
Conditions: higher = larger tumour
How it was run: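 Mice carrying transplanted tumors received test compound, and survival or tumor size was recorded. Each value is the treated-group measurement divided by the corresponding measurement in vehicle-dosed controls.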

[1] = endpoint: median tumor weight (est.), dose: 12.5 mg/kg/injection, schedule: Q07DX005 (ip), vehicle: saline
[2] = endpoint: median tumor weight (est.), dose: 25.0 mg/kg/injection, schedule: Q07DX005 (ip), vehicle: saline
[3] = endpoint: median tumor weight (est.), dose: 50.0 mg/kg/injection, schedule: Q07DX005 (ip), vehicle: saline
[4] = endpoint: median tumor weight (est.), dose: 100.0 mg/kg/injection, schedule: Q07DX005 (ip), vehicle: saline
[5] = endpoint: median tumor weight (est.), dose: 200.0 mg/kg/injection, schedule: Q07DX005 (ip), vehicle: saline
[6] = endpoint: median tumor weight (est.), dose: 400.0 mg/kg/injection, schedule: Q07DX005 (ip), vehicle: saline

SMILES: COc1cccc2c1C(=O)c1c(O)c3c(c(O)c1C2=O)CC(O)(C(=O)CO)CC3OC1CC(N)C(O)C(C)O1 (stereo unspecified)
- T/C (endpoint: median tumor weight (est.), dose: 12.0 mg/kg/injection, schedule: Q07DX006 (ip), vehicle: saline): 37 % of control
- T/C (endpoint: median tumor weight (est.), dose: 20.0 mg/kg/injection, schedule: Q07DX005 (ip), vehicle: water): 33 % of control
- T/C (endpoint: median tumor weight (est.), dose: 24.0 mg/kg/injection, schedule: Q07DX006 (ip), vehicle: saline): 18 % of control
- T/C (endpoint: median tumor weight (est.), dose: 30.0 mg/kg/injection, schedule: Q07DX005 (ip), vehicle: saline): 33 % of control
- T/C (endpoint: median tumor weight (est.), dose: 30.0 mg/kg/injection, schedule: Q07DX005 (ip), vehicle: water): 11 % of control and 22 % of control
- T/C (endpoint: median tumor weight (est.), dose: 45.0 mg/kg/injection, schedule: Q07DX005 (ip), vehicle: water): 1 % of control and 11 % of control
- T/C (endpoint: median tumor weight (est.), dose: 48.0 mg/kg/injection, schedule: Q07DX006 (ip), vehicle: saline): 1 % of control
- T/C (endpoint: median tumor weight (est.), dose: 60.0 mg/kg/injection, schedule: Q07DX005 (ip), vehicle: saline): 14 % of control and 18 % of control

SMILES: CSC1SCC2C(=O)N(C)C(C(C)C)C(=O)OCC(NC(=O)c3cnc4ccccc4n3)C(=O)NC(C)C(=O)N(C)C1C(=O)N(C)C(C(C)C)C(=O)OCC(NC(=O)c1cnc3ccccc3n1)C(=O)NC(C)C(=O)N2C (stereo unspecified)
- T/C (endpoint: mean tumor weight, dose: 7.5 micrograms/kg/injection, schedule: Q07DX005 (ip), vehicle: saline): 67 % of control
- T/C (endpoint: mean tumor weight, dose: 15.0 micrograms/kg/injection, schedule: Q07DX005 (ip), vehicle: saline): 83 % of control
- T/C (endpoint: median tumor weight (est.), dose: 7.5 micrograms/kg/injection, schedule: Q07DX005 (ip), vehicle: saline): 82 % of control
- T/C (endpoint: median tumor weight (est.), dose: 15.0 micrograms/kg/injection, schedule: Q07DX005 (ip), vehicle: saline): 67 % of control
- T/C (endpoint: median tumor weight (est.), dose: 30.0 micrograms/kg/injection, schedule: Q07DX005 (ip), vehicle: saline): 97 % of control
- T/C (endpoint: median tumor weight (est.), dose: 60.0 micrograms/kg/injection, schedule: Q07DX005 (ip), vehicle: saline): 117 % of control
- T/C (endpoint: median tumor weight (est.), dose: 120.0 micrograms/kg/injection, schedule: Q07DX005 (ip), vehicle: saline): 76 % of control

SMILES: CCCCCCCCC(C)C(=O)N1CCCC1C(=O)N1C(CC(=O)CC)CC(C)CC1C(=O)NC(C)C(=O)NC(C)(C)C(=O)NC(C)(C)C(=O)NC(C(=O)NC(C)C(=O)NC(C)(C)C(=O)NC(C)(C)C(=O)NC(C)CN(C)CCO)C(C)CC (stereo unspecified) (X1-P[X2]A[Aib][Aib]IA[Aib][Aib]-X3; configuration not given here)
- T/C (endpoint: median tumor weight change, dose: 3.0 mg/kg/injection, schedule: Q01DX001 (ip), vehicle: saline with Tween-80): 100 % of control
- T/C (endpoint: median tumor weight change, dose: 3.12 mg/kg/injection, schedule: Q01DX001 (ip), vehicle: other): 123 % of control

SMILES: O=c1[nH]cnc2c1ccn2C1OC(CO)C(O)C1O (stereo unspecified)
- T/C (endpoint: median tumor weight change, dose: 24.0 mg/kg/injection, schedule: Q01DX001 (ip), vehicle: saline): 74 % of control
- T/C (endpoint: median tumor weight change, dose: 48.0 mg/kg/injection, schedule: Q01DX001 (ip), vehicle: saline): 62 % of control

SMILES: CN(C)C(=O)SC1=C(c2c(Cl)cccc2Cl)C(=O)c2ccccc21
- T/C (endpoint: median tumor weight change, dose: 125.0 mg/kg/injection, schedule: Q01DX001 (ip), vehicle: Klucel (hydroxypropylcellulose) (HPC)): 101 % of control and 115 % of control
- T/C (endpoint: median tumor weight change, dose: 250.0 mg/kg/injection, schedule: Q01DX001 (ip), vehicle: Klucel (hydroxypropylcellulose) (HPC)): 98 % of control and 109 % of control
- T/C (endpoint: median tumor weight change, dose: 500.0 mg/kg/injection, schedule: Q01DX001 (ip), vehicle: Klucel (hydroxypropylcellulose) (HPC)): 113 % of control
- T/C (endpoint: median tumor weight change, dose: 1000.0 mg/kg/injection, schedule: Q01DX001 (ip), vehicle: Klucel (hydroxypropylcellulose) (HPC)): 74 % of control and 75 % of control
- T/C (endpoint: median tumor weight change, dose: 2000.0 mg/kg/injection, schedule: Q01DX001 (ip), vehicle: Klucel (hydroxypropylcellulose) (HPC)): 22 % of control and 38 % of control

SMILES: O=c1[nH]c(=O)n(C2OC(CO)C(O)C2O)cc1F (stereo unspecified)
- T/C (endpoint: median tumor weight (est.), dose: 1.56 mg/kg/injection, schedule: Q07DX005 (ip), vehicle: saline): 79 % of control
- T/C (endpoint: median tumor weight (est.), dose: 3.12 mg/kg/injection, schedule: Q07DX005 (ip), vehicle: saline): 103 % of control
- T/C (endpoint: median tumor weight (est.), dose: 6.25 mg/kg/injection, schedule: Q07DX005 (ip), vehicle: saline): 75 % of control
- T/C [1]: 45 % of control
- T/C [2]: 11 % of control

SMILES: CC(=O)c1cccc(NC2C(N)C(NC(=O)N(C)C)(C(C)O)C(C)(O)C2(O)COC(=O)c2c(C)cccc2O)c1 (stereo unspecified)
- T/C (endpoint: median tumor weight (est.), dose: 1.0 mg/kg/injection, schedule: Q07DX005 (ip), vehicle: suspension in saline): 162 % of control
- T/C (endpoint: median tumor weight (est.), dose: 1.8 mg/kg/injection, schedule: Q07DX005 (ip), vehicle: saline with Tween-80): 67 % of control and 77 % of control
- T/C (endpoint: median tumor weight (est.), dose: 2.0 mg/kg/injection, schedule: Q07DX005 (ip), vehicle: suspension in saline): 78 % of control
- T/C (endpoint: median tumor weight (est.), dose: 3.6 mg/kg/injection, schedule: Q07DX005 (ip), vehicle: saline with Tween-80): 72 % of control and 93 % of control
- T/C (endpoint: median tumor weight (est.), dose: 4.0 mg/kg/injection, schedule: Q07DX005 (ip), vehicle: suspension in saline): 78 % of control
- T/C (endpoint: median tumor weight (est.), dose: 7.2 mg/kg/injection, schedule: Q07DX005 (ip), vehicle: saline with Tween-80): 55 % of control and 78 % of control
- T/C (endpoint: median tumor weight (est.), dose: 8.0 mg/kg/injection, schedule: Q07DX005 (ip), vehicle: suspension in saline): 119 % of control
- T/C (endpoint: median tumor weight (est.), dose: 14.4 mg/kg/injection, schedule: Q07DX005 (ip), vehicle: saline with Tween-80): 23 % of control and 44 % of control

SMILES: O=C(NO)c1ccccc1
- T/C (endpoint: median tumor weight (est.), dose: 25.0 mg/kg/injection, schedule: Q07DX005 (ip), vehicle: suspension in saline): 46 % of control
- T/C (endpoint: median tumor weight (est.), dose: 50.0 mg/kg/injection, schedule: Q07DX005 (ip), vehicle: suspension in saline): 109 % of control
- T/C (endpoint: median tumor weight (est.), dose: 100.0 mg/kg/injection, schedule: Q07DX005 (ip), vehicle: suspension in saline): 293 % of control

SMILES: C[C@@H](CN1CC(=O)NC(=O)C1)N1CC(=O)NC(=O)C1
- T/C [2]: 75 % of control
- T/C [3]: 39 % of control
- T/C (endpoint: median tumor weight (est.), dose: 100.0 mg/kg/injection, schedule: Q07DX005 (ip), vehicle: Klucel (hydroxypropylcellulose) (HPC)): 52 % of control
- T/C [4]: 85 % of control
- T/C (endpoint: median tumor weight (est.), dose: 200.0 mg/kg/injection, schedule: Q07DX005 (ip), vehicle: Klucel (hydroxypropylcellulose) (HPC)): 107 % of control
- T/C [5]: 46 % of control
- T/C (endpoint: median tumor weight (est.), dose: 400.0 mg/kg/injection, schedule: Q07DX005 (ip), vehicle: Klucel (hydroxypropylcellulose) (HPC)): 37 % of control
- T/C [6]: 45 % of control
- T/C (endpoint: median tumor weight (est.), dose: 800.0 mg/kg/injection, schedule: Q07DX005 (ip), vehicle: Klucel (hydroxypropylcellulose) (HPC)): 10 % of control
- T/C (endpoint: median tumor weight (est.), dose: 800.0 mg/kg/injection, schedule: Q07DX005 (ip), vehicle: saline): 13 % of control

SMILES: NC(=O)c1ncn(C2OC(CO)C(O)C2O)n1 (stereo unspecified)
- T/C (endpoint: mean tumor weight, dose: 12.5 mg/kg/injection, schedule: Q07DX006 (ip), vehicle: saline): 120 % of control
- T/C (endpoint: mean tumor weight, dose: 25.0 mg/kg/injection, schedule: Q07DX006 (ip), vehicle: saline): 288 % of control
- T/C (endpoint: mean tumor weight, dose: 50.0 mg/kg/injection, schedule: Q07DX006 (ip), vehicle: saline): 60 % of control
- T/C (endpoint: mean tumor weight, dose: 100.0 mg/kg/injection, schedule: Q07DX006 (ip), vehicle: saline): 35 % of control
- T/C (endpoint: mean tumor weight, dose: 200.0 mg/kg/injection, schedule: Q07DX006 (ip), vehicle: saline): 41 % of control
- T/C (endpoint: mean tumor weight, dose: 400.0 mg/kg/injection, schedule: Q07DX006 (ip), vehicle: saline): 27 % of control
- T/C [1]: 118 % of control
- T/C [2]: 165 % of control
- T/C [3]: 97 % of control
- T/C [4]: 102 % of control
- T/C [5]: 46 % of control
- T/C [6]: 48 % of control

SMILES: O=C(O)C1Cc2nc[nH]c2CN1CO (stereo unspecified)
- T/C (endpoint: median tumor weight change, dose: 125.0 mg/kg/injection, schedule: Q01DX001 (ip), vehicle: saline with Tween-80): 118 % of control
- T/C (endpoint: median tumor weight change, dose: 250.0 mg/kg/injection, schedule: Q01DX001 (ip), vehicle: saline with Tween-80): 94 % of control
- T/C (endpoint: median tumor weight change, dose: 500.0 mg/kg/injection, schedule: Q01DX001 (ip), vehicle: saline with Tween-80): 93 % of control
- T/C (endpoint: median tumor weight change, dose: 1000.0 mg/kg/injection, schedule: Q01DX001 (ip), vehicle: saline with Tween-80): 77 % of control
- T/C (endpoint: median tumor weight change, dose: 2000.0 mg/kg/injection, schedule: Q01DX001 (ip), vehicle: saline with Tween-80): 81 % of control

SMILES: CN(C)CCC(=O)C(=Cc1ccc(O)cc1)C(=O)CCN(C)C
- T/C (endpoint: median tumor weight change, dose: 50.0 mg/kg/injection, schedule: Q01DX001 (ip), vehicle: suspension in saline): 96 % of control
- T/C (endpoint: median tumor weight change, dose: 62.5 mg/kg/injection, schedule: Q01DX001 (ip), vehicle: saline): 90 % of control
- T/C (endpoint: median tumor weight change, dose: 100.0 mg/kg/injection, schedule: Q01DX001 (ip), vehicle: suspension in saline): 87 % of control
- T/C (endpoint: median tumor weight change, dose: 125.0 mg/kg/injection, schedule: Q01DX001 (ip), vehicle: saline): 62 % of control
